The values below come from patent US20210292347A1, “DIHETEROCYCLIC TRIAZINONE NUCLEOSIDE ANALOGS AND THEIR USE FOR MEDICATION” (priority 2020, published 2021).

Molecules are shown by their SMILES. Values after ≈ are worked out from the molar mass of the structure shown. Read-outs that look alike come from different tables or passages of the source. A value given as a limit tells only on which side of the number the result lay.

The test system of assay [1] is human breast cancer cell line MCF7. In words: cells. The assay is classed as cell-based. As to the method:
(§1) Cell lines: Human pancreatic cancer cell line Panc-1, human colorectal cancer cell line HT29, human lung cancer cell line NCI-H460 and human breast cancer cell line MCF7; the medium: s DMEM (Gibco BRL), containing 10% fetal calf serum (Gibco BRL) and 2 mM L-glutamine (Gibco BRL).
(§2) Test samples: example compounds 7, 15, 82, 89, 116 and 135. The samples were dissolved in dimethyl sulfoxide (DMSO, Sigma, United States) and medium was added to the final concentration of 0.5%. Cyclophosphamide ware as positive control (Aldrich, United States, purity>96%).
(§3) General Method: cells were digested with trypsin and dispersed into single cells in the medium containing penicillin (25 U/ml) and streptomycin (25 μg/mL). The cells were seeded in 96-well culture plates (Corning Incorporated), at 37° C., with 5% CO2 present for 24 hours. The culture medium was removed, […] test compounds were added, cultured for 48 hours. Culture medium was removed and […] (MTT, USA Sigma products) was added. The result was assayed by SK601-based microplate reader (Japan Seikagaku company's products), 570 nm/630 nm optical density (OD). Cell viability determined by the formula: (Experimental group OD/control OD)×100%; CTX and the positive control subjects treated in the same material simultaneously.

The test system of assay [2] is human lung cancer cell line NCI-H460. Description: cells. The assay is classed as cell-based. Conditions: for IC50: Homo sapiens. As to the method:
as §1, §2, §3

The test system of assay [3] is mice sarcoma S180. Description: Growth inhibition of S180 sarcoma in mice. The assay is classed as in vivo, Kunming healthy mice. The following applies: for in-vivo anti-tumor efficacy, statistical significance (in words): S180 sarcoma in mice, doses and routes of Table 3.
Assay [4] has as its system human colorectal cancer cell line HT29. Description: cells. The following applies: for IC50: Homo sapiens, HT-29, MTT. It counts as cell-based. On the procedure: as §1, §2, §3
Assay [5] deals with Human pancreatic cancer cell line Panc-1. In words: cells. It counts as cell-based. Conditions: Homo sapiens, PANC-1; MTT, 48 hours; read-out: IC50 and 95% confidence limit, anti-proliferative effect on Panc-1. On the procedure: as §1, §2, §3
[6] abbreviates: Mus musculus, S-180, mice, iv, read-out: Inhibition rate (%) S180 sarcoma.
Setting [7] is: Mus musculus, S-180, mice, ip, read-out: Inhibition rate (%) S180 sarcoma.

With `O=P1(N(CCCl)CCCl)NCCCO1` (centres unmarked) [CTX, Cyclophosphamide, reference compound], the IC50 (as a rule, the point on the concentration scale where inhibition reaches its midpoint) was determined as 0.92 µg/mL in assay [1] (MCF7, 48 h, read-out: IC50 and 95% confidence limit, MCF7 cells); 4.3 µM in assay [2] (NCI-H460, 48 h, read-out: IC50 Lung cancer NCI-H460); 4.3 µg/mL in assay [2] (NCI-H460, 48 h, read-out: IC50 and 95% confidence limit, NCI-H460 cells). Further, the inhibition in vivo at 15 mg/kg in assay [3] (setting [6]) is under 40%.

On to `CCOC(=O)c1nn(CO)c2c(=O)n(C3OC3CO)nnc12` (centres unmarked) [Example 7, ethyl 7-(hydroxymethyl)-2-(3-(hydroxymethyl)oxiran-2-yl)-1-oxo-2,7-dihydro-1H-pyrazolo[4,3-d][1,2,3]triazine-5-carboxylate], for which the IC50 was 6.18 µM in assay [1] (MCF7, MTT, 48 hours, unit inferred, read-out: IC50 with 95% confidence limits, MCF7 cells); 6.18 µM in assay [1] (MCF7, MTT, cultured for 48 hours, value (95% confidence limit), Table 2, read-out: IC50 Breast cancer MCF7); 18.8 µg/mL in assay [4] (48 hours, read-out: IC50 and 95% confidence limit, anti-proliferative effect on HT29); 18.8 µM in assay [4] (cultured for 48 hours, value (95% confidence limit), Table 2, read-out: IC50 Colorectal cancer HT-29); 51.3 µg/mL (≈ 165 µM) in assay [5]; 5.18 µM in assay [2] (NCI-H460, MTT, 48 hours, unit inferred, read-out: IC50 and 95% confidence limits, NCI-H460 cells). In addition, the IC50 in assay [2] (NCI-H460, MTT, cultured for 48 hours, value (95% confidence limit), Table 2, read-out: IC50 Lung cancer NCI-H460) was 5.18 µM. Besides, the “anti-proliferative effect on HT29 (in words)” value in assay [4] (colorectal cancer) was “relatively weak”. Further, in assay [2] (lung cancer), the “inhibitory effect on NCI-H460 cells (in words)” value is “more sensitive to NCI-H460 cells”. On to `NC(=O)n1nc(N)c2nnn(C3CSC(CO)O3)c(=O)c21` (centres unmarked) [Example 98, 7-amino-3-(2-(hydroxymethyl)-1,3-oxathiolan-5-yl)-4-oxo-3H-pyrazolo[4,3-d][1,2,3]triazine-5(4H)-carboxamide], for which the inhibition in vivo at 70 mg/kg in assay [3] (Mus musculus, S-180, mice, ip, 70 mg/kg, read-out: Inhibition rate (%) S180 sarcoma) was under 20%.

For the compound `CN(C)CCC(=O)Nc1nn(C(N)=O)c2c(=O)n(C3CSC(CO)O3)nnc12` (centres unmarked) [Example 99, 7-(3-(dimethylamino)propanamido)-3-(2-(hydroxymethyl)-1,3-oxathiolan-5-yl)-4-oxo-3H-pyrazolo[4,3-d][1,2,3]triazine-5(4H)-carboxamide], in assay [3] (Mus musculus, S-180, mice, ip, 150 mg/kg, read-out: Inhibition rate (%) S180 sarcoma), the inhibition in vivo at 150 mg/kg is under 20%.

In the case of `CCCc1nn(C(=N)N)c2c(=O)n(C3CSC(CO)O3)nnc12` (centres unmarked) [Example 100, 3-(2-(hydroxymethyl)-1,3-oxathiolan-5-yl)-4-oxo-7-propyl-3H-pyrazolo[4,3-d][1,2,3]triazine-5(4H)-carboximidamide], the inhibition in vivo at 100 mg/kg in assay [3] (setting [7]) was under 40%. The “in-vivo anti-tumor efficacy, statistical significance (in words)” value in assay [3] is listed as “statistically significant”.

Take `CCCc1nn(O)c2c(=O)n(C3OC(COC(C(=O)O)P(=O)(NC(C)C)NC(C)C)C(O)C3O)nnc12` (centres unmarked) [Example 103, 2-(bis(isopropylamino)phosphoryl)-2-((3,4-dihydroxy-5-(5-hydroxy-4-oxo-7-propyl-4,5-dihydro-3H-pyrazolo[4,3-d][1,2,3]triazin-3-yl)tetrahydrofuran-2-yl)methoxy)acetic acid]: the inhibition in vivo at 100 mg/kg in assay [3] (setting [7]) was under 20%.

For the compound `CCCc1nn(C)c2c(=O)n(C3OC(COC(C(=O)O)P(=O)(NC(C)C)NC(C)C)C(O)C3O)nnc12` (centres unmarked) [Example 106, 2-(bis(isopropylamino)phosphoryl)-2-((3,4-dihydroxy-5-(5-methyl-4-oxo-7-propyl-4,5-dihydro-3H-pyrazolo [4,3-d][1,2,3]triazin-3-yl)tetrahydrofuran-2-yl)methoxy)acetic acid], the inhibition in vivo at 50 mg/kg in assay [3] (setting [6]) is under 20%.

Consider `CCCc1nn(O)c2c(=O)n(C3OC(COC(C(=O)O)P(NC(C)C)OCC#N)C(O)C3O)nnc12` (centres unmarked) [Example 117, 2-((cyanomethoxy)(isopropylamino)phosphino)-2-((3,4-dihydroxy-5-(5-hydroxy-4-oxo-7-propyl-4,5-dihydro-3H-pyrazolo [4,3-d][1,2,3]triazin-3-yl)tetrahydrofuran-2-yl)methoxy)acetic acid], for which the inhibition in vivo at 15 mg/kg in assay [3] (setting [6]) is under 40%. Besides, the “in-vivo anti-tumor efficacy, statistical significance (in words)” value in assay [3] is reported as “statistically significant”.

Regarding `CCCc1nn(C)c2c(=O)n(C3OC(COC(C(=O)O)P(NC(C)C)OCC#N)C(O)C3O)nnc12` (centres unmarked) [Example 120, 2-((cyanomethoxy)(isopropylamino)phosphino)-2-((3,4-dihydroxy-5-(5-methyl-4-oxo-7-propyl-4,5-dihydro-3H-pyrazolo[4,3-d][1,2,3]triazin-3-yl)tetrahydrofuran-2-yl)methoxy)acetic acid], the inhibition in vivo at 12.5 mg/kg in assay [3] (Mus musculus, S-180, mice, iv, 12.5 mg/kg, read-out: Inhibition rate (%) S180 sarcoma) is under 40%. In addition, the “in-vivo anti-tumor efficacy, statistical significance (in words)” value in assay [3] is given as “statistically significant”. As to `CCCc1nn(C)c2c(=O)n(COC(CO)CO)nnc12` [Example 126, 3-(((1,3-dihydroxypropan-2-yl)oxy)methyl)-5-methyl-7-propyl-3H-pyrazolo[4,3-d][1,2,3]triazin-4(5H)-one], the inhibition in vivo at 50 mg/kg in assay [3] (setting [6]) is under 20%.

As to `CN(C)CCC(=O)Nc1nn(CC(N)=O)c2c(=O)n(COC(CO)CO)nnc12` [Example 129, N-(5-(2-amino-2-oxoethyl)-3-(((1,3-dihydroxypropan-2-yl)oxy)methyl)-4-oxo-4,5-dihydro-3H-pyrazolo[4,3-d][1,2,3]triazin-7-yl)-3-(dimethylamino) propanamide], the inhibition in vivo at 100 mg/kg in assay [3] (setting [7]) was under 20%. Turning to `CCCc1nn(C(=N)N)c2c(=O)n(C3OC(COP(=O)(O)OP(=O)(O)OP(=O)(O)O)C(O)C3O)nnc12` (centres unmarked) [Example 140, (5-(5-carbamimidoyl-4-oxo-7-propyl-4,5-dihydro-3H-pyrazolo[4,3-d][1,2,3]triazin-3-yl)-3,4-dihydroxytetrahydrofuran-2-yl)methyl tetrahydrogen triphosphate], the inhibition in vivo at 200 mg/kg in assay [3] (setting [7]) was under 20%. `CCCn1nnc2nnn(C3OC(CO)C(O)C3O)c(=O)c21` (centres unmarked) [Example 147, 6-(3,4-dihydroxy-5-(hydroxymethyl)tetrahydrofuran-2-yl)-1-propyl-1H-[1,2,3]triazolo[4,5-d][1,2,3]triazin-7(6H)-one]: the inhibition in vivo at 300 mg/kg in assay [3] (Mus musculus, S-180, mice, ip, 300 mg/kg, read-out: Inhibition rate (%) S180 sarcoma) is under 20%. As to `O=c1c2c(nnn1C1OC(CO)C(O)C1O)nnn2CO` (centres unmarked) [Example 148, 6-(3,4-dihydroxy-5-(hydroxymethyl)tetrahydrofuran-2-yl)-1-(hydroxymethyl)-1H-[1,2,3]triazolo[4,5-d][1,2,3]triazin-7(6H)-one], in assay [3] (setting [7]), the inhibition in vivo at 200 mg/kg is under 20%. `CCCn1nnc2c(=O)n(C3OC(CO)C(O)C3O)nnc21` (centres unmarked) [Example 151, 6-(3,4-dihydroxy-5-(hydroxymethyl)tetrahydrofuran-2-yl)-3-propyl-3H-[1,2,3]triazolo[4,5-d][1,2,3]triazin-7(6H)-one]: the inhibition in vivo at 200 mg/kg in assay [3] (setting [7]) is under 20%. As for `O=c1c2nnn(CO)c2nnn1C1OC(CO)C(O)C1O` (centres unmarked) [Example 152, 6-(3,4-dihydroxy-5-(hydroxymethyl)tetrahydrofuran-2-yl)-3-(hydroxymethyl)-3H-[1,2,3]triazolo[4,5-d][1,2,3]triazin-7(6H)-one], in assay [3] (Mus musculus, S-180, mice, ip, 400 mg/kg, read-out: Inhibition rate (%) S180 sarcoma), the inhibition in vivo at 400 mg/kg is under 20%. In the case of `CCCn1nnc2c(=O)n(C3CCC(COC(C(=O)O)P(=O)(NC(C)C)NC(C)C)O3)nnc21` (centres unmarked) [Example 154, 2-(bis(isopropylamino)phosphoryl)-2-((5-(7-oxo-3-propyl-3H-[1,2,3]triazolo[4,5-d][1,2,3]triazin-6(7H)-yl)tetrahydrofuran-2-yl)methoxy)acetic acid], the inhibition in vivo at 100 mg/kg in assay [3] (setting [7]) is under 20%. As for `CC(=O)O[C@H]1C(=O)[C@@]2(C)[C@H]([C@H](OC(=O)c3ccccc3)[C@]3(O)C[C@H](OC(=O)[C@H](O)[C@@H](NC(=O)c4ccccc4)c4ccccc4)C(C)=C1C3(C)C)[C@]1(OC(C)=O)CO[C@@H]1C[C@@H]2O` [Taxol, Paclitaxel, reference compound], the inhibition in vivo at 20 mg/kg in assay [3] (Mus musculus, S-180, mice, ip, 20 mg/kg, read-out: Inhibition rate (%) S180 sarcoma) is under 40%.
